Results reported in patent publication US9023789B2, “Amylin analogs and pharmaceutical compositions thereof” (Novo Nordisk A/S, priority 2012, dated 2015).
Numbered stars: 1 amine (or outer) side, 2 acyl side, 3 side chain; on linkers, the order of the positions; unused ones are H or OH. Bridge positions count the residues as written; N and C are the ends. Side chains are listed from the residue outwards. Peptide text beside a SMILES is read from it. * marks the point of attachment. C20 diacid = O=C(O)CCCCCCCCCCCCCCCCCCC(=O)*; γGlu = O=C(O)[C@H](CCC(=O)[*:2])N[*:1]; AEEA = NCCOCCOCC(=O)O

Tests used:
[1] = ASSAY (III) ThT fibrillation assay for physical stability; format: physicochemical
In short: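 Formulations with 1 μM ThT, pH adjusted as required, incubated at 37 °C with 960 rpm orbital shaking; fluorescence (ex 444/em 485 nm) read every 20 min. Fibrillation reported as mean ThT fluorescence ± SD of 4–8 replicates at time points; polypeptide concentration measured by reverse-phase HPLC before and after, post-centrifugation.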

[2] = molecular target: T1, rat amylin receptor (rat calcitonin receptor + rat RAMP 3) (Rattus norvegicus, UniProt P32214+Q9JJ73); test: ASSAY (VI) binding to the rat amylin receptor; details: for IC50: binding to rat amylin receptor, read-out: rAmylin-R bind IC50
T1 construct: expressed in transfected cells; host or cells: BHK tk'ts 13 (transient, FuGENE 6), membranes
T1 sequence (P32214 25-479 isoform P32214-2 limits assumed): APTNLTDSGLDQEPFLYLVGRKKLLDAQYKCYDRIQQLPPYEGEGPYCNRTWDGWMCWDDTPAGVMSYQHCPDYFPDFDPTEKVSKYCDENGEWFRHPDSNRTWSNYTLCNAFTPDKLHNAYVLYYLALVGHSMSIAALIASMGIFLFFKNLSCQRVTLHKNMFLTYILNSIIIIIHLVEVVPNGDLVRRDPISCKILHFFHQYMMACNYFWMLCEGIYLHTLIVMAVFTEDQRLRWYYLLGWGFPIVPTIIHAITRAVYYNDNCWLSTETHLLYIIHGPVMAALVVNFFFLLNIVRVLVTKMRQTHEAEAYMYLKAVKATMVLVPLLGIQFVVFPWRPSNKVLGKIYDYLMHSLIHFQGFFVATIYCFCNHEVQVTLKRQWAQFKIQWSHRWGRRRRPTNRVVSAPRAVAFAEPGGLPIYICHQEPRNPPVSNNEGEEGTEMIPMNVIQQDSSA
T1 sequence (Q9JJ73 23-147 partner): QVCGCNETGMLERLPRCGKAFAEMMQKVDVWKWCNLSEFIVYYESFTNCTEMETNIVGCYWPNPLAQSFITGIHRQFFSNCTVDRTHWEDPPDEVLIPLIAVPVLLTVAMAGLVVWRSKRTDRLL
In short: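 Binding to the rat amylin receptor was determined with membrane preparations. The receptor was expressed by transiently transfecting BHK tk′ts 13 cells with rat calcitonin receptor, using FuGENE® 6 (Roche) according to the manufacturer's recommendations. Roughly 48 hours later the cells were harvested and their membranes isolated.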

[3] = Table 7, rat binding selectivity, rCTR IC50 / rAmylin-R IC50
[4] = Table 7a (preferred compounds), rat binding selectivity, rCTR IC50 / rAmylin-R IC50
[5] = ratio of rCTR bind IC50 to rAmylin-R bind IC50

Compound	ThT pH 4.0 lag time (h) [1] [h]	IC50 ([2]; Table 7) [nM]	Ratio rCT/rAmylin binding [2, 3]	Ratio rCT/rAmylin binding [2, 4]	Ratio rCT/rAmylin binding [2, 5]
CC[C@H](C)[C@H](NC(=O)[C@H](C)NC(=O)CNC(=O)[C@H](Cc1ccccc1)NC(=O)[C@H](CC(N)=O)NC(=O)[C@@H]1CCCN1C(=O)[C@H](CO)NC(=O)[C@H](CO)NC(=O)[C@H](Cc1c[nH]cn1)NC(=O)[C@H](CCCNC(=N)N)NC(=O)[C@H](CC(C)C)NC(=O)[C@H](Cc1ccccc1)NC(=O)[C@H](CC(N)=O)NC(=O)[C@H](C)NC(=O)[C@H](CC(C)C)NC(=O)[C@H](CCCNC(=N)N)NC(=O)[C@H](CCC(N)=O)NC(=O)[C@@H](NC(=O)[C@H](C)NC(=O)[C@@H]1CSSC[C@H](NC(=O)[C@@H](N)CCCCNC(=O)COCCOCCNC(=O)CC[C@H](NC(=O)CCCCCCCCCCCCCCCCCCC(=O)O)C(=O)O)C(=O)N[C@@H](CC(N)=O)C(=O)N[C@@H]([C@@H](C)O)C(=O)N[C@@H](C)C(=O)N[C@@H]([C@@H](C)O)C(=O)N1)[C@@H](C)O)C(=O)N1CCC[C@H]1C(=O)N[C@@H](CO)C(=O)N[C@@H](CO)C(=O)N[C@H](C(=O)N[C@@H](CC(N)=O)C(=O)N[C@H](C(=O)NCC(=O)N1CCC[C@H]1C(=O)N[C@@H](Cc1c[nH]cn1)C(=O)N[C@H](C(=O)N[C@@H](Cc1ccc(O)cc1)C(N)=O)[C@@H](C)O)C(C)C)[C@@H](C)O [Example 58] (H-K([AEEA-γGlu-C20 diacid])CNTATCATQRLANFLRHSSPNFGAIPSSTNVGPHTY-NH2; disulfide 2-7)	38	0.135	76.6	76.6	76.6
CC[C@H](C)[C@H](NC(=O)[C@H](C)NC(=O)CNC(=O)[C@H](Cc1ccccc1)NC(=O)[C@H](CC(N)=O)NC(=O)[C@@H]1CCCN1C(=O)[C@H](CO)NC(=O)[C@H](CO)NC(=O)[C@H](Cc1c[nH]cn1)NC(=O)[C@H](CCCNC(=N)N)NC(=O)[C@H](CC(C)C)NC(=O)[C@H](Cc1ccccc1)NC(=O)[C@H](CCCNC(=N)N)NC(=O)[C@H](C)NC(=O)[C@H](CC(C)C)NC(=O)[C@H](CCCNC(=N)N)NC(=O)[C@H](CCC(N)=O)NC(=O)[C@@H](NC(=O)[C@H](C)NC(=O)[C@@H]1CSSC[C@H](NC(=O)[C@@H](N)CCCCNC(=O)COCCOCCNC(=O)CC[C@H](NC(=O)CCCCCCCCCCCCCCCCCCC(=O)O)C(=O)O)C(=O)N[C@@H](CC(N)=O)C(=O)N[C@@H]([C@@H](C)O)C(=O)N[C@@H](C)C(=O)N[C@@H]([C@@H](C)O)C(=O)N1)[C@@H](C)O)C(=O)N1CCC[C@H]1C(=O)N[C@@H](CO)C(=O)N[C@@H](CO)C(=O)N[C@H](C(=O)N[C@@H](CC(N)=O)C(=O)N[C@H](C(=O)NCC(=O)N[C@@H](CO)C(=O)N[C@@H](CC(N)=O)C(=O)N[C@H](C(=O)N[C@@H](Cc1ccc(O)cc1)C(N)=O)[C@@H](C)O)C(C)C)[C@@H](C)O [Example 82] (H-K([AEEA-γGlu-C20 diacid])CNTATCATQRLARFLRHSSPNFGAIPSSTNVGSNTY-NH2; disulfide 2-7; N-terminus assumed)	12	1.64	87.0	87.0	87.0
CC[C@H](C)[C@H](NC(=O)[C@H](C)NC(=O)CNC(=O)[C@H](Cc1ccccc1)NC(=O)[C@H](CC(N)=O)NC(=O)[C@@H]1CCCN1C(=O)[C@H](CO)NC(=O)[C@H](CO)NC(=O)[C@H](Cc1c[nH]cn1)NC(=O)[C@H](CCCNC(=N)N)NC(=O)[C@H](CC(C)C)NC(=O)[C@H](Cc1ccccc1)NC(=O)[C@H](CC(N)=O)NC(=O)[C@H](C)NC(=O)[C@H](CC(C)C)NC(=O)[C@H](CCCNC(=N)N)NC(=O)[C@H](CCC(N)=O)NC(=O)[C@@H](NC(=O)[C@H](C)NC(=O)[C@@H]1CSSC[C@H](NC(=O)[C@@H](N)CCCCNC(=O)COCCOCCNC(=O)CC[C@H](NC(=O)CCCCCCCCCCCCCCCCCCC(=O)O)C(=O)O)C(=O)N[C@@H](CC(N)=O)C(=O)N[C@@H]([C@@H](C)O)C(=O)N[C@@H](C)C(=O)N[C@@H]([C@@H](C)O)C(=O)N1)[C@@H](C)O)C(=O)N1CCC[C@H]1C(=O)N1CCC[C@H]1C(=O)N[C@@H](CO)C(=O)N[C@H](C(=O)N1CCC[C@H]1C(=O)N[C@H](C(=O)NCC(=O)N[C@@H](CO)C(=O)N[C@@H](CC(N)=O)C(=O)N[C@H](C(=O)N[C@@H](Cc1ccc(O)cc1)C(N)=O)[C@@H](C)O)C(C)C)[C@@H](C)O [Example 53] (H-K([AEEA-γGlu-C20 diacid])CNTATCATQRLANFLRHSSPNFGAIPPSTPVGSNTY-NH2; disulfide 2-7; N-terminus assumed)	18	0.084	130.1	130.1	130.1
CC[C@H](C)[C@H](NC(=O)[C@H](C)NC(=O)CNC(=O)[C@@H]1CCCN1C(=O)[C@H](CC(N)=O)NC(=O)[C@H](CC(N)=O)NC(=O)[C@H](CO)NC(=O)[C@H](CO)NC(=O)[C@H](Cc1c[nH]cn1)NC(=O)[C@H](CCCNC(=N)N)NC(=O)[C@H](CC(C)C)NC(=O)[C@H](Cc1ccccc1)NC(=O)[C@H](CCC(=O)O)NC(=O)[C@H](C)NC(=O)[C@H](CC(C)C)NC(=O)[C@H](CCCNC(=N)N)NC(=O)[C@H](CCC(N)=O)NC(=O)[C@@H](NC(=O)[C@H](C)NC(=O)[C@@H]1CSSC[C@H](NC(=O)[C@@H](N)CCCCNC(=O)CC[C@H](NC(=O)CC[C@H](NC(=O)CCCCCCCCCCCCCCCCCCC(=O)O)C(=O)O)C(=O)O)C(=O)N[C@@H](CC(N)=O)C(=O)N[C@@H]([C@@H](C)O)C(=O)N[C@@H](C)C(=O)N[C@@H]([C@@H](C)O)C(=O)N1)[C@@H](C)O)C(=O)N[C@@H](CC(C)C)C(=O)N[C@@H](CO)C(=O)N[C@@H](CO)C(=O)N[C@H](C(=O)N[C@@H](CC(N)=O)C(=O)N[C@H](C(=O)NCC(=O)N1CCC[C@H]1C(=O)N[C@@H](CCC(=O)O)C(=O)N[C@H](C(=O)N[C@@H](Cc1ccc(O)cc1)C(N)=O)[C@@H](C)O)C(C)C)[C@@H](C)O [Example 126] (H-K([γGlu-γGlu-C20 diacid])CNTATCATQRLAEFLRHSSNNPGAILSSTNVGPETY-NH2; disulfide 2-7 (inferred); N-terminus assumed)	0	0.659	131.7	131.7	–
CC[C@H](C)[C@H](NC(=O)[C@H](C)NC(=O)CNC(=O)[C@H](Cc1ccccc1)NC(=O)[C@H](CC(N)=O)NC(=O)[C@@H]1CCCN1C(=O)[C@H](CO)NC(=O)[C@H](CO)NC(=O)[C@H](Cc1c[nH]cn1)NC(=O)[C@H](CCCNC(=N)N)NC(=O)[C@H](CC(C)C)NC(=O)[C@H](Cc1ccccc1)NC(=O)[C@H](CC(N)=O)NC(=O)[C@H](C)NC(=O)[C@H](CC(C)C)NC(=O)[C@H](CCCNC(=N)N)NC(=O)[C@H](CCC(N)=O)NC(=O)[C@@H](NC(=O)[C@H](C)NC(=O)[C@@H]1CSSC[C@H](NC(=O)[C@H](CCCCN)NC(=O)CC[C@H](NC(=O)CCCCCCCCCCCCCCCCCCC(=O)O)C(=O)O)C(=O)N[C@@H](CC(N)=O)C(=O)N[C@@H]([C@@H](C)O)C(=O)N[C@@H](C)C(=O)N[C@@H]([C@@H](C)O)C(=O)N1)[C@@H](C)O)C(=O)N1CCC[C@H]1C(=O)N[C@@H](CO)C(=O)N[C@@H](CO)C(=O)N[C@H](C(=O)N[C@@H](CC(N)=O)C(=O)N[C@H](C(=O)NCC(=O)N1CCC[C@H]1C(=O)N[C@@H](CCC(=O)O)C(=O)N[C@H](C(=O)N[C@@H](Cc1ccc(O)cc1)C(N)=O)[C@@H](C)O)C(C)C)[C@@H](C)O [Example 29] ({C20 diacid-γGlu}-KCNTATCATQRLANFLRHSSPNFGAIPSSTNVGPETY-NH2; disulfide 2-7)	16	0.322	67.0	67.0	67.0
